Several values for one entry are separate records, joined by “and”; a condition that tells them apart may be missing. Identical values can stand only once.
How the values were obtained:
Format in all cases: cell-based
A375 melanoma cell line = test: SRB analysis 3; settings: 48 hours
Protocol: (§1) Through SRB analysis (n=3), the effect of triple combination treatment of a CAC inhibitor (KN510: omeprazole), ACAA inhibitor (KN713: trimetazidine) and other anticancer drug on cell growth in the cancer cells was analyzed. (see Table 11).
(§2) The SRB assay was performed as follows: each cell line (100 μl) was seeded into 96-well microtiter plates at densities ranging from 5,000 to 40,000 cells/well depending on the doubling time of each cell line. After 24 hours, drug (100 μl per well) was added to each well and the culture was incubated at 37° C. for 48 hours. Cells were then fixed in 50% TCA (50 μl per well) and plates were incubated at 4° C. for a minimum of 1 hour or a maximum of 3 hours. After that, the liquid was removed from the plate, then rinsed 5 times with water and dried for approximately 12-24 hours at room temperature (RT). After the fixed cells were stained with 0.4% SRB (100 μl per well) for 10 minutes at room temperature, the plates were washed 3 times with 1% glacial acetic acid and dried at room temperature for about 12-24 hours. SRB staining was dissolved in 10 mM Trizma base and absorbance was read at 515 nm. The effect of the drug was expressed as GI50 (50% growth inhibition), TGI (total growth inhibition) or LC50 (lethal concentration). GI50 is the maximum concentration at the moment of 50% inhibition of cell proliferation and IC50 is the concentration of the drug that inhibits the enzyme activity in vitro by 50% in this study.

[1] = test system: A549 non-small cell lung cancer (NSCLC) cell line; test: SRB analysis 3; settings: 48 hours
Protocol: as §1, §2

[2] = test system: ACHN renal cancer cell line; test: SRB analysis 3; settings: 48 hours
Protocol: as §1, §2

[3] = test system: AGS gastric cancer cell line; test: SRB analysis 3; settings: 48 hours
Protocol: as §1, §2

[4] = test system: AsPC-1 pancreatic cancer (PDAC) cell line; test: SRB analysis 3; settings: 48 hours
Protocol: as §1, §2

[5] = test system: COLO-205 colon cancer cell line; test: SRB analysis 3; settings: 48 hours
Protocol: as §1, §2

[6] = test system: Caki-1 renal cancer cell line; test: SRB analysis 3; settings: 48 hours
Protocol: as §1, §2

[7] = test system: DU145 prostate cancer cell line; test: SRB analysis 3; settings: 48 hours
Protocol: as §1, §2

[8] = test system: H1975 non-small cell lung cancer (NSCLC) cell line; test: SRB analysis 3; settings: 48 hours
Protocol: as §1, §2

[9] = test system: HCT-116 colon cancer cell line; test: SRB analysis 3; settings: 48 hours
Protocol: as §1, §2

[10] = test system: Huh-7 liver cancer cell line; test: SRB analysis 3; settings: 48 hours
Protocol: as §1, §2

[11] = test system: MCF7 breast cancer cell line; test: SRB analysis 3; settings: 48 hours
Protocol: as §1, §2

[12] = test system: MDA-MB-231 breast cancer cell line; test: SRB analysis 3; settings: 48 hours
Protocol: as §1, §2

[13] = test system: MIA PaCa-2 pancreatic cancer (PDAC) cell line; test: SRB analysis 3; settings: 48 hours
Protocol: as §1, §2

[14] = test system: MKN45 gastric cancer cell line; test: SRB analysis 3; settings: 48 hours
Protocol: as §1, §2

[15] = test system: OVCAR-8 ovarian cancer cell line; test: SRB analysis 3; settings: 48 hours
Protocol: as §1, §2

[16] = test system: PC-3 prostate cancer cell line; test: SRB analysis 3; settings: 48 hours
Protocol: as §1, §2

[17] = test system: SK-OV-3 ovarian cancer cell line; test: SRB analysis 3; settings: 48 hours
Protocol: as §1, §2

[18] = test system: SK-hep-1 liver cancer cell line; test: SRB analysis 3; settings: 48 hours
Protocol: as §1, §2

[19] = test system: UACC62 melanoma cell line; test: SRB analysis 3; settings: 48 hours
Protocol: as §1, §2

cancer cells = test: SRB analysis 3, triple combination, summary over cancer panels
Protocol: as §1, §2

[20] = test system: T87G glioblastoma (GBM) cell line; test: SRB analysis 3; settings: Cisplatin 1 μM, 48 hours
Protocol: as §2, with “Through SRB analysis (n=3), the effect of triple combination treatment of a CAC inhibitor ([…] inhibitor (KN713: trimetazidine) and other anticancer drug on cell growth in the cancer cells was analyzed. (see Table 11). The” for “The”, “nm.” for “nm. The effect of the drug was expressed as GI50 (50% growth inhibition), TGI (total growth inhibition) or LC50 (lethal concentration). GI50 is the maximum concentration at the moment of 50% inhibition of cell proliferation and IC50 is the concentration of the drug that inhibits the enzyme activity in vitro by 50% in this study.”

[21] = test system: U87MG glioblastoma (GBM) cell line; test: SRB analysis 3; settings: Cisplatin 1 μM, 48 hours
Protocol: as §2, with “Through SRB analysis (n=3), the effect of triple combination treatment of a CAC inhibitor ([…] inhibitor (KN713: trimetazidine) and other anticancer drug on cell growth in the cancer cells was analyzed. (see Table 11). The” for “The”, “nm.” for “nm. The effect of the drug was expressed as GI50 (50% growth inhibition), TGI (total growth inhibition) or LC50 (lethal concentration). GI50 is the maximum concentration at the moment of 50% inhibition of cell proliferation and IC50 is the concentration of the drug that inhibits the enzyme activity in vitro by 50% in this study.”

[22] = test system: AsPC-1 pancreatic cancer cells; test: SRB analysis 2; settings: KN715 200 μM, 48 hours
Protocol: (§3) The SRB assay was performed as follows: each cell line (100 μl) was seeded into 96-well microtiter plates at densities ranging from 5,000 to 20,000 cells/well depending on the doubling time of each cell line. After cell seeding, microtiter plates were incubated for 24 h before addition of experimental drug. Drugs were prepared at the indicated concentrations and 100 μl was added to each well; The plates were then incubated in a CO2 incubator. Then, cold TCA was added to terminate the assay. Cells were fixed in situ by gentle addition of 50 μl of cold 50% (w/v) TCA (final concentration: 10% TCA) and incubated at 4° C. for 60 min. The supernatant was discarded and the plate was washed 5 times with tap water and then air dried. A solution (100 μl) of 0.4% (w/v) SRB (Sulforhodamine B) in 1% acetic acid was added to each well, and the plate was left at room temperature for 10 minutes. After staining, the plates were air dried after washing 5 times with 1% acetic acid to remove unbound dye. The bound dye was then solubilized with 10 mM trizma base and the absorbance was recorded at 515 nm using an automated plate reader.

[23] = test system: BxPC-3 pancreatic cancer cells; test: SRB analysis 2; settings: KN715 200 μM, 48 hours
Protocol: as §3

[24] = test system: MIA PaCa2 pancreatic cancer cells; test: SRB analysis 2; settings: MIA PaCa-2; KN715 200 μM; 48 hours
Protocol: as §3

[25] = test system: SNU-324 pancreatic cancer cells; test: SRB analysis 2; settings: SNU324; KN715 200 μM; 48 hours
Protocol: as §3

[26] = test system: SU.86.86 pancreatic cancer cells; test: SRB analysis 2; settings: KN715 200 μM, 48 hours
Protocol: as §3

[27] = Breast Cancer, BT-549, MDA MB 231
[28] = Ovarian Cancer, SK-OV-3, OVCAR-3
[29] = Renal cell carcinoma, ACHN, CAKI-1

SMILES: O=c1[nH]cc(F)c(=O)[nH]1 [5-FU]
- cell growth (Control = 100) (A375 melanoma cell line; 5-FU 5 μM): 95.91
- cell growth (Control = 100) ([1]; 5-FU 5 μM): 28.5
- cell growth (Control = 100) ([2]; 5-FU 5 μM): 26.38
- cell growth (Control = 100) ([3]; 5-FU 5 μM): 39.84
- cell growth (Control = 100) ([4]; 5-FU 10 μM): 64.54
- cell growth (Control = 100) ([5]; 5-FU 5 μM): −4.957
- cell growth (Control = 100) ([6]; 5-FU 5 μM): 59.41
- cell growth (Control = 100) ([7]; 5-FU 5 μM): 59.63
- cell growth (Control = 100) ([8]; 5-FU 5 μM): 58.333
- cell growth (Control = 100) ([9]; 5-FU 5 μM): 14.62
- cell growth (Control = 100) ([10]; 5-FU 5 μM): 34.9345
- cell growth (Control = 100) ([11]; 5-FU 5 μM): 11.29
- cell growth (Control = 100) ([12]; 5-FU 5 μM): 73.95
- cell growth (Control = 100) ([13]; 5-FU 10 μM): 36.7557
- cell growth (Control = 100) ([14]; MKN45, 5-FU 5 μM): 51.03
- cell growth (Control = 100) ([15]; 5-FU 5 μM): 77.83
- cell growth (Control = 100) ([16]; 5-FU 5 μM): 51.6552
- cell growth (Control = 100) ([17]; 5-FU 5 μM): 80.76
- cell growth (Control = 100) ([18]; 5-FU 5 μM): 149.7317
- cell growth (Control = 100) ([19]; 5-FU 5 μM): 59.14
- Positive/Negative (triple combination of KN510, KN713 and the listed anticancer drug) (cancer cells; [27]): negative
- Positive/Negative (triple combination of KN510, KN713 and the listed anticancer drug) (cancer cells; Colon Cancer, HT-29, COLO-205): Positive
- Positive/Negative (triple combination of KN510, KN713 and the listed anticancer drug) (cancer cells; GBM, U87MG, T87G): Positive
- Positive/Negative (triple combination of KN510, KN713 and the listed anticancer drug) (cancer cells; Liver Cancer, SNU-449, Huh-7): Positive
- Positive/Negative (triple combination of KN510, KN713 and the listed anticancer drug) (cancer cells; NSCLC, A549, H522): Positive
- Positive/Negative (triple combination of KN510, KN713 and the listed anticancer drug) (cancer cells; [28]): negative
- Positive/Negative (triple combination of KN510, KN713 and the listed anticancer drug) (cancer cells; PDAC, MIA PaCa-2, PANC-1): Positive
- Positive/Negative (triple combination of KN510, KN713 and the listed anticancer drug) (cancer cells; Prostate Cancer, PC-3, DU-145): Positive
- Positive/Negative (triple combination of KN510, KN713 and the listed anticancer drug) (cancer cells; [29]): Positive
- Positive/Negative (triple combination of KN510, KN713 and the listed anticancer drug) (cancer cells; Stomach Cancer, MKN-28, AGS): Positive
- Positive/Negative (triple combination of KN510, KN713 and the listed anticancer drug) (cancer cells; melanoma, UACC62, A375): negative

SMILES: N.N.[Cl][Pt][Cl] [Cisplatin]
- cell growth (Control = 100) (A375 melanoma cell line; Cisplatin 1 μM): 85.06
- cell growth (Control = 100) ([1]; Cisplatin 1 μM): 75.07
- cell growth (Control = 100) ([2]; Cisplatin 1 μM): 118.1147
- cell growth (Control = 100) ([3]; Cisplatin 1 μM): 74.02
- cell growth (Control = 100) ([4]; Cisplatin 1 μM): 94.84
- cell growth (Control = 100) ([5]; Cisplatin 1 μM): 83.44
- cell growth (Control = 100) ([6]; Cisplatin 1 μM): 113.4691
- cell growth (Control = 100) ([7]; Cisplatin 1 μM): 60.85
- cell growth (Control = 100) ([8]; Cisplatin 1 μM): 97.49
- cell growth (Control = 100) ([9]; Cisplatin 1 μM): 100.5484
- cell growth (Control = 100) ([10]; Cisplatin 1 μM): 66.69
- cell growth (Control = 100) ([11]; Cisplatin 1 μM): 70.82
- cell growth (Control = 100) ([12]; Cisplatin 1 μM): 93.91
- cell growth (Control = 100) ([13]; Cisplatin 1 μM): 95.91
- cell growth (Control = 100) ([14]; MKN-45, Cisplatin 1 μM): 96.28
- cell growth (Control = 100) ([15]; Cisplatin 1 μM): 84.76
- cell growth (Control = 100) ([16]; Cisplatin 1 μM): 67.15
- cell growth (Control = 100) ([17]; Cisplatin 1 μM): 75.0979
- cell growth (Control = 100) ([18]; Cisplatin 1 μM): 136.3148
- cell growth (Control = 100) ([19]; Cisplatin 1 μM): 91.68
- cell growth (Control = 100) [20]: 120.49
- cell growth (Control = 100) [21]: 87.30
- Positive/Negative (triple combination of KN510, KN713 and the listed anticancer drug) (cancer cells; [27]): negative
- Positive/Negative (triple combination of KN510, KN713 and the listed anticancer drug) (cancer cells; Colon Cancer, HT-29, COLO-205): negative
- Positive/Negative (triple combination of KN510, KN713 and the listed anticancer drug) (cancer cells; GBM, U87MG, T87G): negative
- Positive/Negative (triple combination of KN510, KN713 and the listed anticancer drug) (cancer cells; Liver Cancer, SNU-449, Huh-7): negative
- Positive/Negative (triple combination of KN510, KN713 and the listed anticancer drug) (cancer cells; NSCLC, A549, H522): negative
- Positive/Negative (triple combination of KN510, KN713 and the listed anticancer drug) (cancer cells; [28]): negative
- Positive/Negative (triple combination of KN510, KN713 and the listed anticancer drug) (cancer cells; PDAC, MIA PaCa-2, PANC-1): negative
- Positive/Negative (triple combination of KN510, KN713 and the listed anticancer drug) (cancer cells; Prostate Cancer, PC-3, DU-145): negative
- Positive/Negative (triple combination of KN510, KN713 and the listed anticancer drug) (cancer cells; [29]): negative
- Positive/Negative (triple combination of KN510, KN713 and the listed anticancer drug) (cancer cells; Stomach Cancer, MKN-28, AGS): negative
- Positive/Negative (triple combination of KN510, KN713 and the listed anticancer drug) (cancer cells; melanoma, UACC62, A375): negative

SMILES: COc1ccccc1OCC(O)CN1CCN(CC(=O)Nc2c(C)cccc2C)CC1 (centres unmarked) [KN715, ranolazine]
- degree of cell growth based on the control (100%) [22]: 86.53% and 57.91% and 63.15%
- degree of cell growth based on the control (100%) [23]: 46.24% and 45.76% and 59.04%
- degree of cell growth based on the control (100%) [24]: 87.91% and 65.15% and 73.29%
- degree of cell growth based on the control (100%) [25]: 23.58% and 23.63% and 27.45%
- degree of cell growth based on the control (100%) [26]: 90.37% and 63.92% and 73.38%

SMILES: CCCS(=O)(=O)Nc1ccc(F)c(C(=O)c2c[nH]c3ncc(-c4ccc(Cl)cc4)cc23)c1F [Vermutafenib]
- cell growth (Control = 100) (A375 melanoma cell line; Vermutafenib 0.5 μM): 7.77
- cell growth (Control = 100) ([19]; Vermutafenib 0.5 μM): 2.10

Reference: patent publication US12728119B2, “Pharmaceutical composition for preventing or treating cancer comprising 3-ketoacyl CoA thiolase inhibitor and carnitine acylcarnitine carrier inhibitor” (NATIONAL CANCER CENTER, priority 2020, dated 2026)
